According to publication PMC8400480, “Synthesis, Antibacterial and Pharmacokinetic Evaluation of Novel Derivatives of Harmine N^9-Cinnamic Acid” (Molecules, 2021):
≈ marks a conversion by molar mass, not a printed value.

Assays:
[1] = test system: Staphylococcus albus CICC 20237 (S. albus); experiment: MIC, microplate dilution method; type: cell-based; conditions: Gram-positive; Mueller-Hinton broth, 37 °C, 18–24 h; read-out: MIC S. albus
Source text: (§1) According to microplate dilution method, all the prepared compounds were screened for their in vitro antibacterial activity. The investigation included three representative Gram-positive strains, including Staphylococcus aureus CICC 10384 (S. aureus), Staphylococcus albus CICC 20237 (S. albus) and methicillinresistant Staphylococcus aureus ATCC 43300 (MRSA), and two representative Gram-negative strains, including Escherichia coli CICC 10389 (E. coli) and Pseudomonas aeruginosa CVCC 3359 (PA). Harmine and cinnamic acid were used as reference drugs.
(§2) The antibacterial efficiency of all prepared compounds was determined using the microplate dilution method. All compounds were prepared into different concentrations of stock solution according to their solubility. The compounds were added to the 96 well plate and serially diluted in Mueller-Hinton broth. Three Gram-positive strains (S. aureus, S. albus and MRSA) and two Gram-negative strains (E. coli and PA) were cultivated and added to the 96 well plate. The initial concentration of bacteria should be higher than 10^5 CFU/mL. The samples were incubated at 37 °C for 18–24 h. The MIC was determined for compounds by observing change of clarity in the broth. The same procedure was repeated in triplicate.

[2] = test system: Staphylococcus aureus CICC 10384 (S. aureus); experiment: MIC, microplate dilution method; type: cell-based; conditions: Gram-positive, Mueller-Hinton broth, 37 °C, 18–24 h, read-out: MIC S. aureus
Source text: as §1, §2

[3] = test system: Escherichia coli CICC 10389 (E. coli); experiment: MIC, microplate dilution method; type: cell-based; conditions: Gram-negative, Mueller-Hinton broth, 37 °C, 18–24 h, read-out: MIC E. coli
Source text: as §1, §2

[4] = test system: methicillinresistant Staphylococcus aureus ATCC 43300 (MRSA); experiment: MIC, microplate dilution method; type: cell-based; conditions: Gram-positive, Mueller-Hinton broth, 37 °C, 18–24 h, read-out: MIC MRSA
Source text: as §1, §2

[5] = test system: Pseudomonas aeruginosa CVCC 3359 (PA); experiment: MIC, microplate dilution method; type: cell-based; conditions: Gram-negative, Mueller-Hinton broth, 37 °C, 18–24 h, read-out: MIC PA
Source text: as §1, §2

[6] = test system: S. aureus (CICC 10384); experiment: Bactericidal time-kill kinetics; type: cell-based, Staphylococcus aureus
Description: The bacteria S. aureus was prepared in Muellere Hinton broth at 37 °C for 6 h with shaking. The solution of 3c (1 × MIC and 6 × MIC), 5a (1 × MIC and 6 × MIC), harmine (1 × MIC and 6 × MIC) and saline (served as a control group) were separately added to the bacterial suspension so that the final bacterial concentration were 10^6~10^7 CFU/mL. At the predetermined time point (0, 0.5, 2, 4, 6, 12 and 24 h), […] of aliquots were serially diluted in normal saline, plated on sterile Muellere Hinton agar plates, and incubated at 37 °C for 24 h. After incubation, the viable colonies were counted and represented as log10 (CFU/mL). The same procedure was repeated in triplicate.
Figure 3 Time-kill kinetics of compound 3c (A) and 5a (B) at 1 × and 6 × MIC against S. aureus (CICC 10384).

| MIC [1] [µg/mL] | MIC [2] [µg/mL] | MIC [3] [µg/mL] | MIC [4] [µg/mL] | MIC [5] [µg/mL] | melting point [°C] | SMILES | time to 4-log10 reduction ([6]; 1 × MIC) | time to completely kill the bacteria ([6]; 6 × MIC) [h] |
| --- | --- | --- | --- | --- | --- | --- | --- | --- |
| 152 (≈ 286 µM) | 152 (≈ 286 µM) | 305 (≈ 573 µM) | 306 (≈ 574 µM) | 305 (≈ 573 µM) | 73.7 to 73.9 | COc1ccc2c3ccnc(C)c3n(CCCCCCOC(=O)/C=C/c3cc(OC)c(OC)c(OC)c3)c2c1 [Compound 6b, 6-(7-Methoxy-1-methyl-9H-pyridine [3,4-b]indole-9-yl) hexyl (E)-3-(3,4,5-trimethoxyphenyl) acrylate] |  |  |
| 750 (≈ 1540 µM) | 375 (≈ 769 µM) | 750 (≈ 1540 µM) | 1500 (≈ 3080 µM) | 750 (≈ 1540 µM) | 117.3 to 119.9 | COc1ccc2c3ccnc(C)c3n(CCCCCCOC(=O)/C=C/c3ccccc3[N+](=O)[O-])c2c1 [Compound 6c, 6-(7-Methoxy-1-methyl-9H-pyridine [3,4-b]indole-9-yl) hexyl(E)-3-(2-nitrophenyl) acrylate] |  |  |
| 53.1 (≈ 79.4 µM) | 53.1 (≈ 79.4 µM) | 212 (≈ 318 µM) | 212 (≈ 318 µM) | 212 (≈ 318 µM) | 113.1 to 115 | COc1ccc2c3ccnc(C)c3n(CCCCCCOC(=O)/C(=C/c3cc(OC)c(OC)c(OC)c3)c3ccc(OC)c(OC)c3)c2c1 [Compound 6d, 6-(7-Methoxy-1-methyl-9H-pyridine [3,4-b]indole-9-yl) hexyl (E)-2-(3,4-dimethoxyphenyl)-3– (3,4,5-trimethoxyphenyl) acrylate] |  |  |
| 166 (≈ 350 µM) | 82.8 (≈ 175 µM) | 662 (≈ 1400 µM) | 331 (≈ 701 µM) | 331 (≈ 701 µM) | 88.7 to 90.4 | COc1ccc(/C=C/C(=O)OCCCCCCn2c3cc(OC)ccc3c3ccnc(C)c32)cc1 [Compound 6a, 6-(7-Methoxy-1-methyl-9H-pyridine [3,4-b]indole-9-yl) hexyl (E)-3-(4-methoxyphenyl) acrylate] |  |  |

Second part, the compound before the results:

| SMILES | MIC [1] [µg/mL] | MIC [2] [µg/mL] | MIC [3] [µg/mL] | MIC [4] [µg/mL] | MIC [5] [µg/mL] | melting point [°C] | time to 4-log10 reduction ([6]; 1 × MIC) | time to completely kill the bacteria ([6]; 6 × MIC) [h] |
| --- | --- | --- | --- | --- | --- | --- | --- | --- |
| COc1ccc(/C=C/C(=O)OCCCCCn2c3cc(OC)ccc3c3ccnc(C)c32)cc1 [Compound 5a, 5-(7-Methoxy-1-methyl-9H-pyridine [3,4-b]indole-9-yl) amyl (E)-3-(4-methoxyphenyl) acrylate] | 15.6 (≈ 34.1 µM) | 15.6 (≈ 34.1 µM) | 250 (≈ 545 µM) | 62.5 (≈ 136 µM) | 125 (≈ 273 µM) | 91.1 to 92.3 | about 24 h | ≤ 12 |
| COc1ccc(/C=C/C(=O)OCCCCn2c3cc(OC)ccc3c3ccnc(C)c32)cc1 [Compound 4a, 4-(7-Methoxy-1-methyl-9H-pyridine [3,4-b]indole-9-yl) butyl (E)-3-(4-methoxyphenyl) acrylate] | 305 (≈ 686 µM) | 305 (≈ 686 µM) | 152 (≈ 343 µM) | 610 (≈ 1370 µM) | 305 (≈ 686 µM) | 118.7 to 120.2 |  |  |
| COc1ccc2c3ccnc(C)c3n(CCCCOC(=O)/C=C/c3ccccc3[N+](=O)[O-])c2c1 [Compound 4c, 4-(7-Methoxy-1-methyl-9H-pyridine [3,4-b]indole-9-yl) butyl (E)-3-(2-nitrophenyl) acrylate] | 1550 (≈ 3370 µM) | 1550 (≈ 3370 µM) | 775 (≈ 1690 µM) | 1550 (≈ 3370 µM) | 388 (≈ 843 µM) | 130.9 to 132.2 |  |  |
| COc1ccc2c3ccnc(C)c3n(CCCCCOC(=O)/C=C/c3ccccc3[N+](=O)[O-])c2c1 [Compound 5c, 5-(7-Methoxy-1-methyl-9H-pyridine [3,4-b]indole-9-yl) amyl (E)-3-(2-nitrophenyl) acrylate] | 110 (≈ 232 µM) | 110 (≈ 232 µM) | 220 (≈ 465 µM) | 220 (≈ 465 µM) | 220 (≈ 465 µM) | 127.4 to 130 |  |  |
| COc1ccc2c3ccnc(C)c3n(CCCOC(=O)/C=C/c3cc(OC)c(OC)c(OC)c3)c2c1 [Compound 3b, 3-(7-Methoxy-1-methyl-9H-pyridine [3,4-b]indole-9-yl) propyl (E)-3-(3,4,5-trimethoxyphenyl) acrylate] | 638 (≈ 1300 µM) | 319 (≈ 650 µM) | 638 (≈ 1300 µM) | 638 (≈ 1300 µM) | 319 (≈ 650 µM) | 102.6 to 104.2 |  |  |
| O=C(O)/C=C/c1ccccc1 [Cinnamic acid] | 1120 (≈ 7590 µM) | 1120 (≈ 7590 µM) | 1120 (≈ 7590 µM) | 1120 (≈ 7590 µM) | 1120 (≈ 7590 µM) |  |  |  |
| COc1ccc(/C=C/C(=O)OCCCn2c3cc(OC)ccc3c3ccnc(C)c32)cc1 [Compound 3a, 3-(7-Methoxy-1-methyl-9H-pyridine [3,4-b]indole-9-yl)propyl(E)-3-(4-methoxyphenyl) acrylate] | 650 (≈ 1510 µM) | 325 (≈ 755 µM) | 650 (≈ 1510 µM) | 1300 (≈ 3020 µM) | 325 (≈ 755 µM) | 133.2 to 133.9 |  |  |
| COc1ccc2c3ccnc(C)c3n(CCCCOC(=O)/C(=C/c3cc(OC)c(OC)c(OC)c3)c3ccc(OC)c(OC)c3)c2c1 [Compound 4d, 4-(7-Methoxy-1-methyl-9H-pyridine [3,4-b]indole-9-yl) butyl (E)-2-(3,4-dimethoxyphenyl)-3-(3,4,5-trimethoxyphenyl) acrylate] | 53.1 (≈ 82.9 µM) | 26.6 (≈ 41.5 µM) | 212 (≈ 332 µM) | 106 (≈ 166 µM) | 212 (≈ 332 µM) | 95.7 to 97.4 |  |  |
| COc1ccc2c3ccnc(C)c3n(CCCCCOC(=O)/C=C/c3cc(OC)c(OC)c(OC)c3)c2c1 [Compound 5b, 5-(7-Methoxy-1-methyl-9H-pyridine [3,4-b]indole-9-yl) amyl (E)-3-(3,4,5-trimethoxyphenyl) acrylate] | 2280 (≈ 4390 µM) | 1140 (≈ 2190 µM) | 1140 (≈ 2190 µM) | 2280 (≈ 4390 µM) | 1140 (≈ 2190 µM) | 103.7 to 104.7 |  |  |
| COc1ccc2c3ccnc(C)c3n(CCCOC(=O)/C(=C/c3cc(OC)c(OC)c(OC)c3)c3ccc(OC)c(OC)c3)c2c1 [Compound 3d, 3-(7-Methoxy-1-methyl-9H-pyridine [3,4-b]indole-9-yl) propyl (E)-2-(3,4-dimethoxyphenyl)-3-(3,4,5-trimethoxyphenyl) acrylate] | 725 (≈ 1160 µM) | 181 (≈ 289 µM) | 725 (≈ 1160 µM) | 362 (≈ 578 µM) | 362 (≈ 578 µM) | 173.6 to 175.2 |  |  |
| COc1ccc2c3ccnc(C)c3n(CCCCOC(=O)/C=C/c3cc(OC)c(OC)c(OC)c3)c2c1 [Compound 4b, 4-(7-Methoxy-1-methyl-9H-pyridine [3,4-b]indole-9-yl) butyl (E)-3-(3,4,5-trimethoxyphenyl) acrylate] | 225 (≈ 446 µM) | 112 (≈ 223 µM) | 450 (≈ 892 µM) | 450 (≈ 892 µM) | 450 (≈ 892 µM) | 95.7 to 96.3 |  |  |
| COc1ccc2c3ccnc(C)c3n(CCCCCOC(=O)/C(=C/c3cc(OC)c(OC)c(OC)c3)c3ccc(OC)c(OC)c3)c2c1 [Compound 5d, 5-(7-Methoxy-1-methyl-9H-pyridine [3,4-b]indole-9-yl) pentyl (E)-2-(3,4-dimethoxyphenyl)-3-(3,4,5-trimethoxyphenyl) acrylate] | 95.3 (≈ 146 µM) | 23.8 (≈ 36.4 µM) | 762 (≈ 1160 µM) | 95.3 (≈ 146 µM) | 381 (≈ 582 µM) | 117.4 to 119.9 |  |  |
